Measured values taken from ChEMBL document CHEMBL1155518, “Synthesis and structure-activity relationships of long-acting beta2 adrenergic receptor agonists incorporating metabolic inactivation: an antedrug approach” (J Med Chem, 2010).
Active and inactive are the calls of the source. The calls are words filed in the database; no cut-off is given here.

Tests used:
Cavia porcellus [1] = species on record: Cavia porcellus; experiment: Bronchodialatory activity against electrically-stimulated contraction in guinea pig trachea assessed as inhibition of recovery of contractile effect measured after 1 hr of drug washout; type: functional, tissue-based
Cavia porcellus [2] = species on record: Cavia porcellus; experiment: Bronchodialatory activity against electrically-stimulated contraction in guinea pig trachea assessed as inhibition of recovery of contractile effect measured after 3 hrs of drug washout; type: functional, tissue-based
[3] = Oral bioavailability in rat; type: ADME, organism-based; conditions: in vivo
Cavia porcellus [4] = experiment: Ex vivo bronchodilatory activity against histamine-induced bronchospasm in guinea pig assessed as time taken for 50% recovery of bronchospasm at EC90 administered via nebulizer; type: functional
Cavia porcellus [5] = experiment: Ex vivo bronchodilatory activity in guinea pig assessed as protection against histamine-induced bronchospasm administered via nebulizer; type: functional
[6] = target: Beta-2 adrenergic receptor (Homo sapiens, UniProt P07550)
Sequence of Beta-2 adrenergic receptor (P07550 whole entry): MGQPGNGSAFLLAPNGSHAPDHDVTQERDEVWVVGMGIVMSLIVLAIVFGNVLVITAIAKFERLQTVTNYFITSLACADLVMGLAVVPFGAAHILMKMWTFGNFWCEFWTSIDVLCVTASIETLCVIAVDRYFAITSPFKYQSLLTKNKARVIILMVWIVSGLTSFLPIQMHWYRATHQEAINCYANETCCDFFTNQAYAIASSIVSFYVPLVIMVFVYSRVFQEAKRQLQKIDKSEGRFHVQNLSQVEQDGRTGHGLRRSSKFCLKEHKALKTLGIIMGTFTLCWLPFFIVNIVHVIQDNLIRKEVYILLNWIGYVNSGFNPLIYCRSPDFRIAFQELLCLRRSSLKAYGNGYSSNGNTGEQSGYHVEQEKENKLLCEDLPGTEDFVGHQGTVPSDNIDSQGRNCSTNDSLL
Description: Agonist activity at human recombinant beta2 adrenergic receptor expressed in CHO cells assessed as induction of intracellular cAMP accumulation after 30 to 45 mins

[7] = target: Beta-1 adrenergic receptor (Homo sapiens, UniProt P08588)
Sequence of Beta-1 adrenergic receptor (P08588 whole entry): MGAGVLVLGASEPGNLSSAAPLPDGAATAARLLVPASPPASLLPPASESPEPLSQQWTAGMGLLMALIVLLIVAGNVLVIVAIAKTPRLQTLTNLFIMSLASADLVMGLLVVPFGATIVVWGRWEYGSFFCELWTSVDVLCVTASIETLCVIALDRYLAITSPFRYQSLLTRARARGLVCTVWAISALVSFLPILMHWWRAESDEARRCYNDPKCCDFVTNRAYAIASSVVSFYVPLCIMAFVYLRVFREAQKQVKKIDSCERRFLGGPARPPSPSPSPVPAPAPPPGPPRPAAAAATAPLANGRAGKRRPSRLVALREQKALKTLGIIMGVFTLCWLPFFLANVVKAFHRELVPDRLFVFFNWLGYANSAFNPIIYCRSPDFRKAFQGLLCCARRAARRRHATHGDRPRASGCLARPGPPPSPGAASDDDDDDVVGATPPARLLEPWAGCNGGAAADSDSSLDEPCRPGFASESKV
Description: Agonist activity at human recombinant beta-1 adrenergic receptor expressed in CHO cells assessed as induction of intracellular cAMP accumulation after 30 to 45 mins

[8] = target: Beta-3 adrenergic receptor (Homo sapiens, UniProt P13945)
Sequence of Beta-3 adrenergic receptor (P13945 whole entry): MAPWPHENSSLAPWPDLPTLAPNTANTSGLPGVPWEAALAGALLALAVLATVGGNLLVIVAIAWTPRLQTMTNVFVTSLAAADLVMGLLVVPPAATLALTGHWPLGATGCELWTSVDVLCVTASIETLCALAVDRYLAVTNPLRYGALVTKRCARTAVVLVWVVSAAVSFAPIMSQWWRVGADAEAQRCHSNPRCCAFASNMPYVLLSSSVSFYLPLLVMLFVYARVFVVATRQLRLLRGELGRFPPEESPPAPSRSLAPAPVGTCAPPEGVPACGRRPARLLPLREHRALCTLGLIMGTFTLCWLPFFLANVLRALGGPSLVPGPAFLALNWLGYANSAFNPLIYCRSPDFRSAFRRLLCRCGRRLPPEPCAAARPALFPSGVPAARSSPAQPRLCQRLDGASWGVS
Description: Agonist activity at human recombinant beta3 adrenergic receptor expressed in CHO cells assessed as induction of intracellular cAMP accumulation after 30 to 45 mins

[9] = Solubility at pH 7.4; type: physicochemical; conditions: buffer
[10] = Bronchodialatory activity against electrically-stimulated contraction in guinea pig trachea assessed as time taken for inducing 50% maximum relaxant effect
[11] = Volume of distribution at steady state in Han Wistar rat at 0.25 mg/kg, iv after 8 hrs by LC/MS/MS analysis; type: ADME, organism-based; set-up: dose 0.25 mg/kg, route intravenous; conditions: in vivo, read-out: Vdss
[12] = Cmax in Han Wistar rat at 2 mg/kg, po after 8 hrs by LC/MS/MS analysis; type: ADME, organism-based; set-up: dose 2 mg/kg, route oral; conditions: in vivo
Cavia porcellus [13] = experiment: Ex vivo bronchodilatory activity against histamine-induced bronchospasm in guinea pig assessed as time taken for 50% recovery of bronchospasm at 10-fold EC90 administered via nebulizer; type: functional
[14] = Oral bioavailability in Han Wistar rat at 2 mg/kg after 8 hrs by LC/MS/MS analysis; type: ADME, organism-based; conditions: in vivo
[15] = Plasma clearance in Han Wistar rat at 0.25 mg/kg, iv after 8 hrs by LC/MS/MS analysis; type: ADME, organism-based; set-up: dose 0.25 mg/kg, route intravenous
[16] = Half life in Han Wistar rat at 0.25 mg/kg, iv by LC/MS/MS analysis; type: ADME, organism-based; set-up: dose 0.25 mg/kg, route intravenous; conditions: in vivo

| SMILES | EC50 [6] [µM] | EC50 [7] [µM] | EC50 [8] [µM] | further results |
| --- | --- | --- | --- | --- |
| OCc1cc([C@@H](O)CNCCCCCCOCCOCc2c(Cl)cccc2Cl)ccc1O |  |  |  | Activity (Cavia porcellus [1]): Active; Activity (Cavia porcellus [2]): Active |
| OCc1cc(C(O)CNCCCCCCOCCCCc2ccccc2)ccc1O (stereo not given) [SALMETEROL] |  |  |  | bioavailability [3]: 10%; Time (Cavia porcellus [4]): 10 h; EC90 (Cavia porcellus [5]): 50 µM; Activity (Cavia porcellus [1]): Active; Activity (Cavia porcellus [2]): Active |
| O=C(O)/C(=C/c1ccccc1)c1ccccc1.OCc1cc([C@@H](O)CNCCCCCCOCCOCc2c(Cl)cccc2Cl)ccc1O [VILANTEROL .ALPHA.-PHENYL CINNAMATE] |  |  |  | solubility [9]: 190 µg/mL |
| CC(=O)O.Cc1cc(C)cc(COCCOCCCCCCNC[C@H](O)c2ccc(O)c(CO)c2)c1 |  | 0.00794 | 0.00501 | Time [10]: 6.9 min; Activity (Cavia porcellus [1]): Active |
| CS(=O)(=O)Nc1cccc(COCCOCCCCCCNC[C@H](O)c2ccc(O)c(CO)c2)c1 | 0.000251 | 0.0126 | 0.0794 |  |
| CC(=O)O.OCc1cc([C@@H](O)CNCCCCCCOCCOCc2ccccc2)ccc1O | 0.00251 | 0.0316 | 0.0398 | Time [10]: 4.8 min; Activity (Cavia porcellus [2]): Active |
| CC(=O)O.OCc1cc([C@@H](O)CNCCCCCCOCCOCc2cccc3ccccc23)ccc1O | 0.000126 | 0.0126 | 0.00501 | Time [10]: 10.2 min; Activity (Cavia porcellus [1]): Active; Activity (Cavia porcellus [2]): Active |
| CC(=O)O.OCc1cc([C@@H](O)CNCCCCCCOCCOCc2c(Cl)cccc2Cl)ccc1O [VILANTEROL ACETATE] |  |  | 0.794 | Vd [11]: 4.4 L/kg; Time [10]: 6.6 min; Cmax [12]: < 2 ng/mL; Time (Cavia porcellus [13]): 17 h; bioavailability [14]: < 5%; clearance [15]: 123 mL/min/kg; EC90 (Cavia porcellus [5]): 30 µM; half-life [16]: 48 min |
| O=C(O)C(c1ccccc1)(c1ccccc1)c1ccccc1.OCc1cc([C@@H](O)CNCCCCCCOCCOCc2c(Cl)cccc2Cl)ccc1O [VILANTEROL TRIFENATATE] |  |  |  | solubility [9]: 33 µg/mL |

The next lines start with results.

| EC50 [6] [µM] | EC50 [7] [µM] | EC50 [8] [µM] | SMILES | further results |
| --- | --- | --- | --- | --- |
| 0.00251 |  |  | Cc1ccc(COCCOCCCCCCNC[C@H](O)c2ccc(O)c(CO)c2)cc1 |  |
| 0.002 | 0.1 | 0.398 | NS(=O)(=O)c1ccc(COCCOCCCCCCNC[C@H](O)c2ccc(O)c(CO)c2)cc1 |  |
|  | 0.02 | 0.0316 | OCc1cc([C@@H](O)CNCCCCCCOCCOCc2cccc(O)c2)ccc1O |  |
| 0.00158 | 0.0501 | 0.126 | NS(=O)(=O)c1cccc(COCCOCCCCCCNC[C@H](O)c2ccc(O)c(CO)c2)c1 |  |
|  | 0.0126 | 0.00794 | OCc1cc([C@@H](O)CNCCCCCCOCCOCc2cc(Cl)ccc2Cl)ccc1O |  |
| 0.00794 | 0.0794 | 0.0631 | OCc1cc([C@@H](O)CNCCCCCCOCCOCc2ccc(O)cc2)ccc1O |  |
|  |  | 12.6 | OCCOCCCCCCNC[C@H](O)c1ccc(O)c(CO)c1 |  |
| 0.00158 | 0.02 | 0.316 | NC(=O)Nc1cccc(COCCOCCCCCCNC[C@H](O)c2ccc(O)c(CO)c2)c1 |  |
| 0.00251 |  |  | OCc1cc([C@@H](O)CNCCCCCCOCCOCc2ccc(Cl)cc2)ccc1O |  |
